The text below walks through data of US5494921A, “Fibrinogen receptor antagonists” (Merck & Co., Inc., priority 1994, dated 1996).

Usually IC50 stands for the concentration that gives 50% inhibition. A higher IC50 goes with weaker potency.

In one experiment the test system is gel-filtered human platelets. As to the kind of experiment: Inhibition of ADP-stimulated platelet aggregation (IC50 Plaggin). The experiment is classed as cell-based. To be noted: ADP-initiated (10 mM ADP) aggregation of gel-filtered human platelets, fibrinogen 100 ug/ml, Ca2+ 1 mM, 37° C. How it is done: Platelet aggregation is measured at 37° C. in a Chronolog aggregometer. The reaction mixture contains gel-filtered human platelets (2×10^8 per ml), fibrinogen (100 micrograms per ml (ug/ml)), Ca^2 +(1 mM), and the compound to be tested. The aggregation is initiated by adding […] ADP 1 minute after the other components are added. The reaction is then allowed to proceed for at least 2 minutes. The extent of inhibition of aggregation is expressed as the percentage of the rate of aggregation observed in the absence of inhibitor. The IC50 is the dose of a particular compound inhibiting aggregation by 50% relative to a control lacking the compound.
In addition to the following preparative procedures, several examples of in vitro bioactivity of compounds within the scope of the present invention are indicated. To illustrate, one test which is used to evaluate fibrinogen receptor antagonist activity is based on evaluation of inhibition of ADP-stimulated platelets. Aggregation requires that fibrinogen bind to and occupy the platelet fibrinogen receptor site. Inhibitors of fibrinogen binding inhibit aggregation. In the ADP-stimulated platelet aggregation assay used to determine inhibition associated with the compounds claimed in the instant invention, human platelets are isolated from fresh blood, collected into acid citrate/dextrose o by differential centrifugation followed by gel filtration on Sepharose 2B in divalent ion-free Tyrode's buffer (pH 7.4) containing 2% bovine serum albumin.
`CCCCS(=O)(=O)N[C@@H](CNC(=O)C1CC1C(=O)NCCC1CCNCC1)C(=O)O` (some centres unmarked) displayed an IC50 of 210 nM.

For `CCCCS(=O)(=O)N[C@@H](CNC(=O)[C@@H]1C[C@H]1C(=O)NCCC1CCNCC1)C(=O)O`, the IC50 worked out at 77 nM. Still for that read-out and setting: in the case of `CCCCS(=O)(=O)N[C@@H](CNC(=O)[C@H]1C[C@@H]1C(=O)NCCC1CCNCC1)C(=O)O` it was 580 nM; in that of `CCCCS(=O)(=O)N[C@@H](CCNC(=O)[C@@H]1C[C@H]1C(=O)NCCC1CCNCC1)C(=O)O`, 3500 nM; in that of `CCCCS(=O)(=O)N[C@@H](CCNC(=O)[C@H]1C[C@@H]1C(=O)NCCC1CCNCC1)C(=O)O`, 17000 nM.

`CCCCS(=O)(=O)N[C@@H](CNC(=O)C1CC1CC(=O)NCCC1CCNCC1)C(=O)O` (some centres unmarked) returned an IC50 of 140 nM. Still for that read-out and setting: as for `C[C@H](CC(=O)O)NC(=O)[C@@H]1C[C@H]1C(=O)NCCC1CCNCC1`, the figure is 17000 nM.

The test system of a further experiment is gp IIb/IIIa complex.
Experiment: not given
To be noted: cited from earlier work.
As for Echistatin, the “affinity for the gp IIb/IIIa complex” value is “high affinity”.
